{
  "source": "paper PMC5218480",
  "about": "(PLoS ONE, 2017)",
  "test_system": "MV-4-11 cells",
  "test": "Gene expression microarray analysis (Affymetrix PrimeView) and GSEA",
  "type": "cell-based, human",
  "parameters": "RFU PODN (11730768_x_at) / Fold change /veh PODN (11730768_x_at) / RFU LINC00158 (11744669_a_at) / Fold change /veh LINC00158 (11744669_a_at) / RFU DUSP10 (11751237_a_at) / Fold change /veh DUSP10 (11751237_a_at) / RFU ID3 (11757404_x_at) / Fold change /veh ID3 (11757404_x_at) / RFU PLEKHG5 (11737974_s_at) / Fold change /veh PLEKHG5 (11737974_s_at) / RFU LRRC4B (11730491_at) / Fold change /veh LRRC4B (11730491_at) / RFU GIMAP4 (11747438_a_at) / Fold change /veh GIMAP4 (11747438_a_at) / RFU KRT8 (11758183_x_at) / Fold change /veh KRT8 (11758183_x_at) / RFU CNN1 (11734310_a_at) / Fold change /veh CNN1 (11734310_a_at) / RFU VPS37D (11726825_at) / Fold change /veh VPS37D (11726825_at) / RFU C10orf10 (11716522_x_at) / Fold change /veh C10orf10 (11716522_x_at) / RFU KIR2DL2 /// KIR2DL4 /// KIR2DL5A /// KIR2DL5B /// KIR2DS1 /// KIR2DS2 /// KIR2DS3 /// KIR2DS4 /// KIR3DL3 /// KIR3DL3 /// KIR3DS1 (11738374_at) / Fold change /veh KIR2DL2 /// KIR2DL4 /// KIR2DL5A /// KIR2DL5B /// KIR2DS1 /// KIR2DS2 /// KIR2DS3 /// KIR2DS4 /// KIR3DL3 /// KIR3DL3 /// KIR3DS1 (11738374_at) / RFU C1QL1 (11718748_at) / Fold change /veh C1QL1 (11718748_at) / RFU TMPRSS4 (11747572_a_at) / Fold change /veh TMPRSS4 (11747572_a_at) / RFU HAMP (11756126_x_at) / Fold change /veh HAMP (11756126_x_at) / RFU RNFT2 (11725882_a_at) / Fold change /veh RNFT2 (11725882_a_at) / RFU NR4A2 (11747474_a_at) / Fold change /veh NR4A2 (11747474_a_at) / RFU ABCC12 (11746883_a_at) / Fold change /veh ABCC12 (11746883_a_at) / RFU TMEM136 (11760407_x_at) / Fold change /veh TMEM136 (11760407_x_at) / RFU CLDN22 /// WWC2 (11732394_at) / Fold change /veh CLDN22 /// WWC2 (11732394_at) / RFU HLA-DPB1 (11760878_x_at) / Fold change /veh HLA-DPB1 (11760878_x_at) / RFU SPINT1 (11716480_a_at) / Fold change /veh SPINT1 (11716480_a_at) / RFU GAP43 (11754022_s_at) / Fold change /veh GAP43 (11754022_s_at) / RFU A4GNT (11735810_at) / Fold change /veh A4GNT (11735810_at) / RFU PRB3 (11715151_x_at) / Fold change /veh PRB3 (11715151_x_at) / RFU TUBB4B (11761932_at) / Fold change /veh TUBB4B (11761932_at) / RFU CAPN14 (11732068_a_at) / Fold change /veh CAPN14 (11732068_a_at) / RFU TMCC2 (11721928_a_at) / Fold change /veh TMCC2 (11721928_a_at) / RFU IRGQ (11745062_a_at) / Fold change /veh IRGQ (11745062_a_at) / RFU FAM174B (11720279_a_at) / Fold change /veh FAM174B (11720279_a_at) / RFU TMPRSS4 (11748680_a_at) / Fold change /veh TMPRSS4 (11748680_a_at) / RFU FAM212B (11763350_a_at) / Fold change /veh FAM212B (11763350_a_at) / RFU PLEKHG5 (11743358_a_at) / Fold change /veh PLEKHG5 (11743358_a_at) / RFU ZSCAN30 (11745921_a_at) / Fold change /veh ZSCAN30 (11745921_a_at) / RFU CMKLR1 (11741424_a_at) / Fold change /veh CMKLR1 (11741424_a_at) / RFU LOC101060620 /// MAPK8IP1 (11723275_at) / Fold change /veh LOC101060620 /// MAPK8IP1 (11723275_at) / RFU SPTSSB (11747773_x_at) / Fold change /veh SPTSSB (11747773_x_at) / RFU PRSS12 (11739890_at) / Fold change /veh PRSS12 (11739890_at) / RFU BIN1 (11741810_x_at) / Fold change /veh BIN1 (11741810_x_at) / RFU WNT11 (11732464_a_at) / Fold change /veh WNT11 (11732464_a_at) / RFU C10orf10 (11716521_a_at) / Fold change /veh C10orf10 (11716521_a_at) / RFU C5orf56 (11738089_at) / Fold change /veh C5orf56 (11738089_at) / RFU CYB561 (11721691_x_at) / Fold change /veh CYB561 (11721691_x_at) / RFU ANKRD19P (11752326_a_at) / Fold change /veh ANKRD19P (11752326_a_at) / RFU OR2T12 /// OR2T33 /// OR2T8 (11738714_s_at) / Fold change /veh OR2T12 /// OR2T33 /// OR2T8 (11738714_s_at) / RFU VCAN (11748164_a_at) / Fold change /veh VCAN (11748164_a_at) / RFU JSRP1 (11732532_at) / Fold change /veh JSRP1 (11732532_at) / RFU KRTAP10-11 (11738290_x_at) / Fold change /veh KRTAP10-11 (11738290_x_at) / RFU MYO3A (11730013_a_at) / Fold change /veh MYO3A (11730013_a_at) / RFU EBF3 (11725865_a_at) / Fold change /veh EBF3 (11725865_a_at) / RFU CAMK2N1 (11719241_x_at) / Fold change /veh CAMK2N1 (11719241_x_at) / RFU C5orf56 (11738088_a_at) / Fold change /veh C5orf56 (11738088_a_at) / RFU OLFML3 (11715873_a_at) / Fold change /veh OLFML3 (11715873_a_at) / RFU LOC100653217 /// NTM (11731650_a_at) / Fold change /veh LOC100653217 /// NTM (11731650_a_at) / RFU MAPK11 (11762145_a_at) / Fold change /veh MAPK11 (11762145_a_at) / RFU FIZ1 (11724087_x_at) / Fold change /veh FIZ1 (11724087_x_at) / RFU OASL (11726364_x_at) / Fold change /veh OASL (11726364_x_at) / RFU SOX15 (11748057_x_at) / Fold change /veh SOX15 (11748057_x_at) / RFU CD79A (11719716_a_at) / Fold change /veh CD79A (11719716_a_at) / RFU HIST1H1D (11736915_at) / Fold change /veh HIST1H1D (11736915_at) / RFU CASKIN2 (11723855_a_at) / Fold change /veh CASKIN2 (11723855_a_at) / RFU LOC730098 (11760151_x_at) / Fold change /veh LOC730098 (11760151_x_at) / RFU OR4N2 (11742367_at) / Fold change /veh OR4N2 (11742367_at) / RFU PRRT2 (11749266_a_at) / Fold change /veh PRRT2 (11749266_a_at) / RFU SNX32 (11753110_a_at) / Fold change /veh SNX32 (11753110_a_at) / RFU CDHR5 (11726645_a_at) / Fold change /veh CDHR5 (11726645_a_at) / RFU RCAN1 (11760418_a_at) / Fold change /veh RCAN1 (11760418_a_at) / RFU FAM167A (11723789_a_at) / Fold change /veh FAM167A (11723789_a_at) / RFU FAM26E (11764081_at) / Fold change /veh FAM26E (11764081_at) / RFU ISYNA1 (11749810_s_at) / Fold change /veh ISYNA1 (11749810_s_at) / RFU ACY1 (11761880_at) / Fold change /veh ACY1 (11761880_at) / RFU 11764098_at / Fold change /veh 11764098_at / RFU SAMD14 (11745864_x_at) / Fold change /veh SAMD14 (11745864_x_at) / RFU NPB (11741838_a_at) / Fold change /veh NPB (11741838_a_at) / RFU TMPRSS6 (11731388_a_at) / Fold change /veh TMPRSS6 (11731388_a_at) / RFU KRTAP10-2 (11738614_at) / Fold change /veh KRTAP10-2 (11738614_at) / RFU ARHGAP8 /// PRR5-ARHGAP8 (11727945_x_at) / Fold change /veh ARHGAP8 /// PRR5-ARHGAP8 (11727945_x_at) / RFU KRTAP5-7 /// NADSYN1 (11734609_at) / Fold change /veh KRTAP5-7 /// NADSYN1 (11734609_at) / RFU RASL12 (11751679_a_at) / Fold change /veh RASL12 (11751679_a_at) / RFU CDKN2B (11736163_a_at) / Fold change /veh CDKN2B (11736163_a_at) / RFU PRF1 (11729649_at) / Fold change /veh PRF1 (11729649_at) / RFU, ZNF638 /// ZNF638-IT1 / Fold change vs veh, ZNF638 /// ZNF638-IT1 / RFU, PANK3 / Fold change vs veh, PANK3 / RFU, SH3YL1 / Fold change vs veh, SH3YL1 / RFU, ZEB2 / Fold change vs veh, ZEB2 / RFU, NRIP1 / Fold change vs veh, NRIP1 / RFU, PTTG1IP / Fold change vs veh, PTTG1IP / RFU, CAPN2 / Fold change vs veh, CAPN2 / RFU, MED14 / Fold change vs veh, MED14 / RFU, SNORA58 / Fold change vs veh, SNORA58 / RFU, C1orf63 / Fold change vs veh, C1orf63 / RFU, LRRFIP1 / Fold change vs veh, LRRFIP1 / RFU, NDUFAF7 / Fold change vs veh, NDUFAF7 / RFU, SLC12A2 / Fold change vs veh, SLC12A2 / RFU, IBTK / Fold change vs veh, IBTK / RFU, ESF1 / Fold change vs veh, ESF1 / Fold change vs veh, TMEM50B / RFU, TAOK1 / Fold change vs veh, TAOK1 / RFU, ACBD3 / Fold change vs veh, ACBD3 / RFU, TMA16 / Fold change vs veh, TMA16 / RFU, RWDD3 / Fold change vs veh, RWDD3 / RFU, BCAT1 / Fold change vs veh, BCAT1 / RFU, EDEM3 / Fold change vs veh, EDEM3 / RFU, TMEM33 / Fold change vs veh, TMEM33 / RFU, WDR75 / Fold change vs veh, WDR75 / RFU, AHCTF1 / Fold change vs veh, AHCTF1 / RFU, TFRC / Fold change vs veh, TFRC / RFU, ZDHHC17 / Fold change vs veh, ZDHHC17 / RFU, NOM1 / Fold change vs veh, NOM1 / RFU, ARL8B / Fold change vs veh, ARL8B / RFU, ZBTB11 / Fold change vs veh, ZBTB11 / RFU, TAMM41 / Fold change vs veh, TAMM41 / RFU, KIAA1704 /// LOC100996395 / Fold change vs veh, KIAA1704 /// LOC100996395 / RFU, ING1 / Fold change vs veh, ING1 / RFU, TRMT61B / Fold change vs veh, TRMT61B / RFU, FUBP3 / Fold change vs veh, FUBP3 / RFU, TP53 / Fold change vs veh, TP53 / RFU, TNKS2 / Fold change vs veh, TNKS2 / RFU, ZFP14 / Fold change vs veh, ZFP14 / RFU, ACTR2 / Fold change vs veh, ACTR2 / RFU, PPP3R1 / Fold change vs veh, PPP3R1 / RFU, PIK3R1 / Fold change vs veh, PIK3R1 / RFU, HNRNPA1 / Fold change vs veh, HNRNPA1 / RFU, RNF170 / Fold change vs veh, RNF170 / RFU, ZNF28 / Fold change vs veh, ZNF28 / RFU, RNGTT / Fold change vs veh, RNGTT / RFU, OGT / Fold change vs veh, OGT / RFU, BRD1 / Fold change vs veh, BRD1 / RFU, MARS / Fold change vs veh, MARS / RFU, ZNF655 / Fold change vs veh, ZNF655 / RFU, FAHD1 / Fold change vs veh, FAHD1 / RFU, BDP1 / Fold change vs veh, BDP1 / RFU, LRRCC1 / Fold change vs veh, LRRCC1 / RFU, ARID1A / Fold change vs veh, ARID1A / RFU, ZNF146 / Fold change vs veh, ZNF146 / RFU, ZNF330 / Fold change vs veh, ZNF330 / RFU, GPN3 / Fold change vs veh, GPN3 / RFU, C9orf123 / Fold change vs veh, C9orf123 / RFU, N4BP2L2 / Fold change vs veh, N4BP2L2 / RFU, ARFIP1 / Fold change vs veh, ARFIP1 / RFU, FAM179B / Fold change vs veh, FAM179B / RFU, BCL10 / Fold change vs veh, BCL10 / RFU, UHRF1BP1L / Fold change vs veh, UHRF1BP1L / RFU, BET1 / Fold change vs veh, BET1 / RFU, CNOT2 / Fold change vs veh, CNOT2 / RFU, ZNF268 / Fold change vs veh, ZNF268 / Fold change vs veh, ZNF507 / RFU, DGCR2 / Fold change vs veh, DGCR2 / RFU, WDSUB1 / Fold change vs veh, WDSUB1 / Fold change vs veh, HSP90B1 /// MIR3652 / RFU, ADSS / Fold change vs veh, ADSS / RFU, GK / Fold change vs veh, GK / RFU, ZNF148 / Fold change vs veh, ZNF148 / RFU, TAF9 / Fold change vs veh, TAF9 / RFU, SLC1A5 / Fold change vs veh, SLC1A5 / RFU, SLMO2 / Fold change vs veh, SLMO2 / RFU, ABCC4 / Fold change vs veh, ABCC4 / RFU, LOC101060439 /// RAP1B / Fold change vs veh, LOC101060439 /// RAP1B / RFU, RFX7 / Fold change vs veh, RFX7 / RFU, GTPBP10 / Fold change vs veh, GTPBP10 / RFU, CNEP1R1 / Fold change vs veh, CNEP1R1 / RFU, BIVM-ERCC5 /// ERCC5 / Fold change vs veh, BIVM-ERCC5 /// ERCC5 / RFU, ILF3 / Fold change vs veh, ILF3 / RFU 11762660_at / Fold change /veh 11762660_at / RFU VCAN (11757783_s_at) / Fold change /veh VCAN (11757783_s_at) / RFU DDX43 (11728927_at) / Fold change /veh DDX43 (11728927_at) / RFU KRT8 (11758188_x_at) / Fold change /veh KRT8 (11758188_x_at) / RFU NKD1 (11759106_at) / Fold change /veh NKD1 (11759106_at) / RFU SRD5A1 (11742802_a_at) / Fold change /veh SRD5A1 (11742802_a_at) / RFU TPSAB1 /// TPSB2 (11721975_s_at) / Fold change /veh TPSAB1 /// TPSB2 (11721975_s_at) / RFU GSTM3 (11746129_a_at) / Fold change /veh GSTM3 (11746129_a_at) / RFU IL23R (11737362_x_at) / Fold change /veh IL23R (11737362_x_at) / RFU TMEM51 (11727254_a_at) / Fold change /veh TMEM51 (11727254_a_at) / RFU PIWIL2 (11732686_x_at) / Fold change /veh PIWIL2 (11732686_x_at) / RFU ORM1 (11744905_x_at) / Fold change /veh ORM1 (11744905_x_at) / RFU CCDC152 (11743942_at) / Fold change /veh CCDC152 (11743942_at) / RFU ECM1 (11717891_a_at) / Fold change /veh ECM1 (11717891_a_at) / RFU IL23R (11748794_a_at) / Fold change /veh IL23R (11748794_a_at) / RFU TNFAIP8L3 (11732012_x_at) / Fold change /veh TNFAIP8L3 (11732012_x_at) / RFU MBOAT4 (11741988_at) / Fold change /veh MBOAT4 (11741988_at) / RFU 11764193_at / Fold change /veh 11764193_at / RFU TMEM53 (11763286_at) / Fold change /veh TMEM53 (11763286_at) / RFU MAGEB2 (11727129_at) / Fold change /veh MAGEB2 (11727129_at) / RFU TMEM200A (11744735_a_at) / Fold change /veh TMEM200A (11744735_a_at) / RFU CCDC152 (11751479_a_at) / Fold change /veh CCDC152 (11751479_a_at) / RFU FAM211A (11726209_a_at) / Fold change /veh FAM211A (11726209_a_at) / RFU RGS16 (11746705_a_at) / Fold change /veh RGS16 (11746705_a_at) / RFU VCAN (11755009_s_at) / Fold change /veh VCAN (11755009_s_at) / RFU RHOB (11743442_s_at) / Fold change /veh RHOB (11743442_s_at) / RFU RGS16 (11720943_a_at) / Fold change /veh RGS16 (11720943_a_at) / RFU RGS16 (11720944_at) / Fold change /veh RGS16 (11720944_at) / RFU, VPS4B / Fold change vs veh, VPS4B / RFU, CREB1 / Fold change vs veh, CREB1 / RFU, DNAJC13 / Fold change vs veh, DNAJC13 / RFU, GNAQ / Fold change vs veh, GNAQ / RFU, CDK5R1 / Fold change vs veh, CDK5R1 / RFU, ZRANB3 / Fold change vs veh, ZRANB3 / RFU, CUL4A / Fold change vs veh, CUL4A / RFU, CCNY / Fold change vs veh, CCNY / RFU, UFL1 / Fold change vs veh, UFL1 / RFU, COG3 / Fold change vs veh, COG3 / RFU, DIAPH2 / Fold change vs veh, DIAPH2 / RFU, SKA2 / Fold change vs veh, SKA2 / RFU, AFF3 / Fold change vs veh, AFF3 / RFU, LMF1 / Fold change vs veh, LMF1 / RFU, IPO11 / Fold change vs veh, IPO11 / RFU, DFFB / Fold change vs veh, DFFB / RFU, FOXP1 / Fold change vs veh, FOXP1 / RFU, CARD8 / Fold change vs veh, CARD8 / RFU, STRN3 / Fold change vs veh, STRN3 / RFU, ADK / Fold change vs veh, ADK / RFU, RASSF2 / Fold change vs veh, RASSF2 / RFU, WIPF1 / Fold change vs veh, WIPF1 / RFU, LARP1B / Fold change vs veh, LARP1B / RFU, RASA1 / Fold change vs veh, RASA1 / RFU, RB1 / Fold change vs veh, RB1 / RFU, PPFIA1 / Fold change vs veh, PPFIA1 / RFU, MAT2A / Fold change vs veh, MAT2A / RFU, CCT5 / Fold change vs veh, CCT5 / RFU, WDR92 / Fold change vs veh, WDR92 / RFU, CUX1 / Fold change vs veh, CUX1 / RFU, TTC7A / Fold change vs veh, TTC7A / RFU, TMEM135 / Fold change vs veh, TMEM135 / RFU, DEPTOR / Fold change vs veh, DEPTOR / RFU, CPM / Fold change vs veh, CPM / RFU, DNAJB6 / Fold change vs veh, DNAJB6 / RFU, CACNA2D3 / Fold change vs veh, CACNA2D3 / RFU, DTX4 / Fold change vs veh, DTX4 / RFU, TFCP2 / Fold change vs veh, TFCP2 / RFU, GMCL1 /// GMCL1P1 / Fold change vs veh, GMCL1 /// GMCL1P1 / RFU, AEBP2 / Fold change vs veh, AEBP2 / RFU, SNHG1 /// SNORD22 /// SNORD25 /// SNORD26 /// SNORD27 /// SNORD28 /// SNORD29 /// SNORD31 / Fold change vs veh, SNHG1 /// SNORD22 /// SNORD25 /// SNORD26 /// SNORD27 /// SNORD28 /// SNORD29 /// SNORD31 / Fold change (Aza/veh), C12orf56 (ProbeSet 11735607_a_at) / Fold change (ACY-1035/veh), C12orf56 (ProbeSet 11735607_a_at) / Fold change (Aza/veh), FGFR1OP (ProbeSet 11751329_s_at) / Fold change (ACY-1035/veh), FGFR1OP (ProbeSet 11751329_s_at) / Fold change (Aza/veh), VPS36 (ProbeSet 11739960_a_at) / Fold change (ACY-1035/veh), VPS36 (ProbeSet 11739960_a_at) / RFU SYPL1 (11715823_x_at) / Fold change /veh SYPL1 (11715823_x_at) / RFU IGFBP7 (11715501_s_at) / Fold change /veh IGFBP7 (11715501_s_at) / RFU REEP3 (11722064_at) / Fold change /veh REEP3 (11722064_at) / RFU IGLL1 (11728026_x_at) / Fold change /veh IGLL1 (11728026_x_at): dose or concentration left out as unconfirmed",
  "settings": "ProbeSet 11759095_at; LIST D",
  "data": [
    {"smiles": "Nc1ncn([C@@H]2O[C@H](CO)[C@@H](O)[C@H]2O)c(=O)n1", "note": "[azacitidine]", "values": [
      {"measurement": "RFU, GNAQ", "result": 765.32, "unit": "RFU"}
    ]}
  ]
}
